The results in this text go back to the supplement of paper PMC9701192.

The structures appear in SMILES notation. ± gives the uncertainty stated by the source.

Holding throughout (experiment): mass response relative to vehicle control (EMD distance of treated vs reference mass distribution minus control baseline) (% of mean reference cell mass); higher = larger drug-induced change in single-cell mass distribution (stronger response)
The subject of assay [1] is PC9. As to the method: (§1)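 Cancer cell lines were treated in vitro with drugs at the listed doses (about 24 h; 0.25% DMSO vehicle). Single-cell buoyant mass was measured on suspended microchannel resonator instruments with CNN image curation, 2500 cells per condition. Mass response is the Earth Mover's Distance to vehicle-treated reference cells as % of mean reference mass.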

For assay [2], the system named is MM1S ATCC. The procedure: as §1
In assay [3] the test system is MDA-MB-361. The procedure:
as §1

The test system of assay [4] is MOLM-13. As to the method:
as §1

Turning to `C=CC(=O)Nc1cc(Nc2nccc(-c3cn(C)c4ccccc34)n2)c(OC)cc1N(C)CCN(C)C` [Osimertinib], the mass response in assay [1] (0.05 µM) is 11.8 ± 3; in assay [1] (0.5 µM) it was 9.37 ± 6.4; in assay [1] (5 µM), 7.62 ± 2.4; in assay [1] (50 µM), 65.8 ± 0.9.
In the case of `COc1cc2ncnc(Nc3ccc(F)c(Cl)c3)c2cc1NC(=O)/C=C/CN1CCCCC1` [Dacomitinib], the mass response was 14.47 ± 0.087 in assay [1] (0.5 µM), 25.2 ± 0.96 in assay [1] (5 µM), 55.6 ± 1.2 in assay [1] (20 µM) and 62.57 ± 0.055 in assay [1] (50 µM).
For `N[C@@H](Cc1ccc(N(CCCl)CCCl)cc1)C(=O)O` [Melphalan], the mass response in assay [2] (0.1 µM) turned out to be 9.64 ± 4.4; in assay [2] (1 µM), 17.5 ± 4.6; in assay [2] (10 µM), 12.9 ± 2.5; in assay [2] (50 µM), 29.6 ± 1.6.
Consider `CC(C)C[C@H](NC(=O)[C@H](CCc1ccccc1)NC(=O)CN1CCOCC1)C(=O)N[C@@H](Cc1ccccc1)C(=O)N[C@@H](CC(C)C)C(=O)[C@@]1(C)CO1` [Carfilzomib], for which the mass response in assay [2] (0.005 µM) was found to be 10.7 ± 4.9; in assay [2] (0.05 µM) it was 31 ± 2.6; in assay [2] (0.1 µM), 34.7 ± 2; in assay [2] (0.5 µM), 33.4 ± 2.5.
For the compound `Nc1nc2[nH]cc(CCc3ccc(C(=O)N[C@@H](CCC(=O)O)C(=O)O)cc3)c2c(=O)[nH]1` [Pemetrexed], the mass response in assay [3] (0.5 µM) came to 14.4 ± 3.6; in assay [3] (1 µM) it was 15.2 ± 2.1; in assay [3] (5 µM), 19 ± 2.9; in assay [3] (50 µM), 21.8 ± 2.8.
For the compound `CC(C)C[C@H](NC(=O)CNC(=O)c1cc(Cl)ccc1Cl)B(O)O` [Ixazomib], the mass response in assay [2] (0.00025 µM) is 2.33 ± 1.5; in assay [2] (0.0025 µM) it was -0.705 ± 2.2; in assay [2] (0.025 µM), 10.7 ± 0.64; in assay [2] (0.25 µM) it was 9.05 ± 2.4.
In the case of `CNC(=O)c1cc(Oc2ccc(NC(=O)Nc3ccc(Cl)c(C(F)(F)F)c3)cc2)ccn1` [Sorafenib], the mass response in assay [4] (0.0005 µM) is -1.17 ± 0.94; in assay [4] (0.005 µM), 10.6 ± 1; in assay [4] (0.05 µM) it was 32 ± 0.86; in assay [4] (0.5 µM), 35.2 ± 0.46.
Consider `CC1(COc2ccc3c(c2)ncn3-c2ccc3cccc(N4CCC(N)CC4)c3n2)COC1` [Crenolanib], for which the mass response in assay [4] (0.001 µM) was 3.34 ± 2; in assay [4] (0.01 µM), 31 ± 1.7; in assay [4] (0.1 µM) it was 37.3 ± 0.76; in assay [4] (1 µM) it was 37.99 ± 0.31.
On to `Nc1ncn([C@H]2C[C@H](O)[C@@H](CO)O2)c(=O)n1` [Decitabine], for which the mass response in assay [4] (0.25 µM) was determined as 7.58 ± 1.9; in assay [4] (2.5 µM), 9.65 ± 3.3; in assay [4] (25 µM), 9.39 ± 2.4; in assay [4] (0.00025 M), 8.64 ± 2.2.
As for `CC(=O)O[C@@]12CO[C@@H]1C[C@H](O)[C@@]1(C)C(=O)[C@H](O)C3=C(C)[C@@H](OC(=O)[C@H](O)[C@@H](NC(=O)OC(C)(C)C)c4ccccc4)C[C@@](O)([C@@H](OC(=O)c4ccccc4)[C@H]21)C3(C)C` [Docetaxel], the mass response in assay [1] (0.001 µM) turned out to be 0.63 ± 3.4; in assay [1] (0.0025 µM) it was 5.56 ± 2.2; in assay [1] (0.005 µM), 12.4 ± 1.8; in assay [1] (0.01 µM), 25.2 ± 4.1.
Regarding `O=C(/C=C\n1cnc(-c2cc(C(F)(F)F)cc(C(F)(F)F)c2)n1)NNc1cnccn1` [Selinexor], the mass response is -0.878 ± 0.35 in assay [2] (0.005 µM), 4.05 ± 1.2 in assay [2] (0.05 µM), 12.7 ± 3.1 in assay [2] (0.5 µM) and 12 ± 3.1 in assay [2] (5 µM).
Turning to `Cn1ncnc1[C@H]1c2n[nH]c(=O)c3cc(F)cc(c23)N[C@@H]1c1ccc(F)cc1` [Talazoparib], the mass response in assay [3] (0.2 µM) is 8.83 ± 4.3; in assay [3] (2 µM), 8.66 ± 2.9; in assay [3] (20 µM), 11.8 ± 3.6; in assay [3] (50 µM), 13.1 ± 6.4.
With `O=C(O)C1(C(=O)O)CCC1.[NH2-].[NH2-].[Pt+2]` [Carboplatin], the mass response was -0.849 ± 1.3 in assay [1] (0.1 µM), 1.45 ± 5.4 in assay [1] (1 µM), 11.1 ± 3.2 in assay [1] (10 µM) and 25.9 ± 5.4 in assay [1] (0.0001 M).
In the case of `CC(=O)O[C@H]1C(=O)[C@@]2(C)[C@H]([C@H](OC(=O)c3ccccc3)[C@]3(O)C[C@H](OC(=O)[C@H](O)[C@@H](NC(=O)c4ccccc4)c4ccccc4)C(C)=C1C3(C)C)[C@]1(OC(C)=O)CO[C@@H]1C[C@@H]2O` [Paclitaxel], the mass response in assay [1] (0.005 µM) was 0.247 ± 0.78; in assay [1] (0.025 µM) it was 26.9 ± 1.3; in assay [1] (0.05 µM), 30.7 ± 0.9; in assay [1] (0.1 µM), 30.6 ± 1.4.
`COc1cc(N2CCC(N3CCN(C)CC3)CC2)ccc1Nc1ncc(Cl)c(Nc2ccccc2P(C)(C)=O)n1` [Brigatinib]: the mass response was found to be 1.59 ± 3.9 in assay [1] (0.1 µM), 22.4 ± 1.5 in assay [1] (0.5 µM), 33.6 ± 2.4 in assay [1] (1 µM) and 51.3 ± 5.4 in assay [1] (10 µM).
